Test results as given in PubChem BioAssay AID200 (DTP/NCI, 2004).
Values joined by “and” are separate entries in the source; they are usually repeats but may differ in a detail not shown here. Identical values can stand only once. Inconclusive results and toxic doses are left out.

Tested on: B6C3F1 mice, B16 melanoma ip, median survival T/C
Assay: NCI In Vivo Anticancer Drug Screen. Data for tumor model B16 Melanoma (intraperitoneal) in B6C3F1 mice
Conditions: endpoint: median survival time, schedule: Q01DX009 (ip), higher = longer survival
In short: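 Mice bearing transplanted tumor were dosed with compound or vehicle, and survival was recorded. Activity is expressed as the treated-group measurement (T) divided by the vehicle control measurement (C).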

[1] = dose: 12.5 mg/kg/injection, vehicle: water
[2] = dose: 25.0 mg/kg/injection, vehicle: water
[3] = dose: 6.25 mg/kg/injection, vehicle: saline with Tween-80
[4] = dose: 25.0 mg/kg/injection, vehicle: saline with Tween-80
[5] = dose: 50.0 mg/kg/injection, vehicle: saline with Tween-80
[6] = dose: 12.5 mg/kg/injection, vehicle: saline
[7] = dose: 25.0 mg/kg/injection, vehicle: saline
[8] = dose: 50.0 mg/kg/injection, vehicle: saline
[9] = dose: 100.0 mg/kg/injection, vehicle: saline
[10] = dose: 200.0 mg/kg/injection, vehicle: saline
[11] = dose: 400.0 mg/kg/injection, vehicle: saline

Structure (SMILES): O=c1ccc2ccccc2o1
- T/C (dose: 7.5 mg/kg/injection, vehicle: saline with Tween-80): 116 % of control and 118 % of control
- T/C (dose: 15.0 mg/kg/injection, vehicle: saline with Tween-80): 117 % of control and 120 % of control
- T/C (dose: 30.0 mg/kg/injection, vehicle: saline with Tween-80): 111 % of control and 112 % of control
- T/C (dose: 60.0 mg/kg/injection, vehicle: saline with Tween-80): 120 % of control and 100 % of control
- T/C (dose: 120.0 mg/kg/injection, vehicle: saline with Tween-80): 90 % of control and 96 % of control

Structure (SMILES): O=C(O)[C@H](Cc1ccccc1)N1C(=O)c2ccccc2C1=O
- T/C (dose: 50.0 mg/kg/injection, vehicle: DMSO): 96 % of control
- T/C (dose: 100.0 mg/kg/injection, vehicle: DMSO): 99 % of control
- T/C (dose: 200.0 mg/kg/injection, vehicle: DMSO): 99 % of control
- T/C (dose: 800.0 mg/kg/injection, vehicle: DMSO): 88 % of control

Structure (SMILES): ClCC[N+]12CC[N+](CCCl)(CC1)C2
- T/C [1]: 98 % of control
- T/C [2]: 114 % of control
- T/C (dose: 50.0 mg/kg/injection, vehicle: water): 104 % of control
- T/C (dose: 100.0 mg/kg/injection, vehicle: water): 108 % of control

Structure (SMILES): O=CCC(O)C(O)C(O)CO (stereo not drawn)
- T/C (dose: 300.0 mg/kg/injection, vehicle: saline): 112 % of control
- T/C (dose: 600.0 mg/kg/injection, vehicle: saline): 103 % of control
- T/C (dose: 1200.0 mg/kg/injection, vehicle: saline): 104 % of control
- T/C (dose: 1800.0 mg/kg/injection, vehicle: saline): 108 % of control
- T/C (dose: 2400.0 mg/kg/injection, vehicle: saline): 101 % of control

Structure (SMILES): COc1cc([C@@H]2c3cc4c(cc3[C@H](OC3OC5COC(c6ccccc6)OC5C(O)C3O)[C@H]3COC(=O)[C@H]23)OCO4)cc(OC)c1OC (stereo partly drawn)
- T/C [3]: 123 % of control
- T/C [4]: 154 % of control
- T/C [5]: 169 % of control and 177 % of control

Structure (SMILES): C[Si](C)(C)O/C=C1\CCCCC1=O
- T/C [3]: 105 % of control
- T/C (dose: 12.5 mg/kg/injection, vehicle: saline with Tween-80): 104 % of control
- T/C [4]: 113 % of control
- T/C [5]: 105 % of control
- T/C (dose: 100.0 mg/kg/injection, vehicle: saline with Tween-80): 110 % of control
- T/C (dose: 200.0 mg/kg/injection, vehicle: saline with Tween-80): 97 % of control

Structure (SMILES): CCN(CC)CCCC(C)Nc1c2ccc(C)cc2nc2ccc(OC)cc12 (stereo not drawn)
- T/C [6]: 102 % of control
- T/C [7]: 111 % of control

Structure (SMILES): OCC1(CO)COC2(CCCCC2)N1
- T/C (dose: 6.25 mg/kg/injection, vehicle: saline): 95 % of control
- T/C [6]: 119 % of control and 96 % of control and 103 % of control
- T/C [7]: 114 % of control and 102 % of control and 104 % of control
- T/C [8]: 114 % of control and 96 % of control and 104 % of control
- T/C [9]: 112 % of control and 94 % of control and 104 % of control
- T/C [10]: 111 % of control and 99 % of control
- T/C [11]: 109 % of control and 93 % of control

Structure (SMILES): OCCCN1CCCCC1CO (stereo not drawn)
- T/C [6]: 94 % of control
- T/C [7]: 106 % of control
- T/C [8]: 99 % of control
- T/C [9]: 105 % of control
- T/C [10]: 101 % of control
- T/C [11]: 111 % of control and 101 % of control
- T/C (dose: 800.0 mg/kg/injection, vehicle: saline): 112 % of control

Structure (SMILES): CCN(Cc1ccc(Cl)c(Cl)c1)c1ccc2nc(N)nc(N)c2c1C
- T/C (dose: 3.12 mg/kg/injection, vehicle: water): 112 % of control and 123 % of control
- T/C (dose: 3.13 mg/kg/injection, vehicle: distilled water + Tween-80): 120 % of control
- T/C (dose: 6.25 mg/kg/injection, vehicle: water): 124 % of control
- T/C [1]: 92 % of control
- T/C [2]: 150 % of control
